Reference: patent US11633459B2, “GIP derivatives and uses thereof” (priority 2018, dated 2023)

Columns and labels:
in vivo = settings: female, Göttingen, minipig, iv, 5 nmol/kg
Method: Pharmacokinetic Study in Minipigs
The purpose of this study is to determine the half-life in vivo of the derivatives of the present invention after i.v. administration to minipigs, i.e. the prolongation of their time in the body and thereby their time of action. This is done in a pharmacokinetic (PK) study, where the terminal half-life of the derivative in question is determined. By terminal half-life is generally meant the period of time it takes to halve a certain plasma concentration, measured after the initial distribution phase.
Female Göttingen minipigs were obtained from Ellegaard Göttingen Minipigs (Dalmose, Denmark) approximately 7-14 months of age and weighing from approximately 16-35 kg were used in the studies. The minipigs were housed individually and fed restrictedly once daily with SDS minipig diet (Special Diets Services, Essex, UK).
After at 3 weeks of acclimatisation two permanent central venous catheters were implanted in vena cava caudalis in each animal. The animals were allowed 1 week recovery after the surgery, and were then used for repeated pharmacokinetic studies with a suitable wash-out period between successive derivative dosing.
Blood samples (for example 0.8 ml) were collected in EDTA buffer (8 mM) and then centrifuged at 4° C. and 1942G for 10 minutes.
Individual plasma concentration-time profiles were analysed by a non-compartmental model in Phoenix WinNonLin ver. […] (Pharsight Inc., Mountain View, Calif., USA), and the resulting terminal half-lives (harmonic mean) determined.

human GIP receptor = molecular target: T1, human GIP receptor (Homo sapiens, UniProt P48546); assay: In vitro potency, CRE luciferase reporter gene assay, whole BHK cells expressing human GIP receptor; type: cell-based; settings: 0.2% HSA
T1 construct: expressed in transfected cells; host or cells: BHK cells (parent line BHKTS13), clone BHK CRE luc2P hGIPR clone #5
T1 sequence (P48546 22-466): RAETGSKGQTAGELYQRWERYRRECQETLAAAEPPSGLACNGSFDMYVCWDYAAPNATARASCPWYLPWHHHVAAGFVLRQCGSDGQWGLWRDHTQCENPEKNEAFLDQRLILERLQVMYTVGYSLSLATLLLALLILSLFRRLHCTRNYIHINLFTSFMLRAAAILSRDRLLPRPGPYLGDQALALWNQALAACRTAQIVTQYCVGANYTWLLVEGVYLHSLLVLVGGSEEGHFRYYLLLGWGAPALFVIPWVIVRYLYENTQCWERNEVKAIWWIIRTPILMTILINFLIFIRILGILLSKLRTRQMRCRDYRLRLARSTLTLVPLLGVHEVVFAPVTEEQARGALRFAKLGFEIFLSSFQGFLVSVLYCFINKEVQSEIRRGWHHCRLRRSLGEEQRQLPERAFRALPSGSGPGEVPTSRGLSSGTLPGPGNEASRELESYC
Outline: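 BHK clones carrying a CRE luciferase element, each transfected with one human receptor, were seeded at 5000 cells/well overnight. Compounds were diluted in buffer with 1% ovalbumin and 0.1% Pluronic F-68, with or without human serum albumin. Luminescence was read after steadylite plus; non-linear log(agonist)-response fit, averaged over at least two replicates.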

[1] = Chemical stability: HMWP formation by SEC-MS; type: physicochemical; settings: 250 μM, pH 7.4, 37° C., 4 weeks
Method: The aim of this study is to determine the chemical stability of GIP derivative compositions. As a measure of stability of the GIP derivative composition, the formation of high molecular weight peptide formation (% HMWP) as a function of time was analysed by size-exclusion chromatography (SEC-MS). Further, the purity loss of the GIP derivative compositions was measured by LCMS. Samples for chemical stability assays were freshly prepared before each assay. […] The pH of the sample was adjusted to the desired value using appropriate amounts of concentrated NaOH and HCl. […] Formation of covalent oligomers (HMWPs) was analysed and identified by a SEC-MS method. […] The LC system was coupled to both a TUV detector operated at 215 nm, 10 Hz and a high resolution QToF mass spectrometer from Waters (Synapt G2S) operated in positive ion mode and m/z range of 100 to 4000 with normal resolution setting. Lock mass correction against Leu-Enkephalin was done every 31 sec. Spectra were processed in MassLynx version 4.1 and MaxEnt deconvoluted.

[2] = Dynamic Light Scattering Stability Index (DLS-SI); type: physicochemical; settings: concentration only 5 μM instead of 250 μM, pH 7.4, 25° C.
[3] = Sub-chronic in vivo study in DIO mice: IPGTT (intraperitoneal glucose tolerance test); parameters: species or system DIO male C57BL/6J mice; settings: Tables 6-8, compound 47 2 nmol/kg, GIP derivatives 30 nmol/kg
Source text: (§1) The purpose of this example is to assess the in vivo effect of the GIP derivatives of the present invention alone and in combination with a GLP-1 receptor agonist on food intake, body weight, and glucose tolerance in diet-induced obese (DIO) mice. The GLP-1 receptor agonist used for this example was a semaglutide-like molecule that has the same pharmacological properties as semaglutide, but a slightly different structure. The compound may be synthesised using methods known in the art, e.g. as described by methods of present Example 1 or as described in WO 2006/097537, example 4.
(§2) The animals were treated once daily with the GLP-1 receptor agonist (compound no. 47) and/or a GIP derivative of the present invention exemplified by compound no.'s 5, 25 and 31, to assess weight loss, efficacy and glucose tolerance. Animals and Diet
All animal protocols were approved by an Institutional Animal Care and Use Committee and Ethical Review Committee of Novo Nordisk. […]
On the day of the glucose tolerance test (day 15), animals were fasted for 4 h. […] Tail blood glucose levels were measured and mice were injected (t=0) with an intra-peritoneal (i.p.) glucose load of 2 g/kg (200 mg/ml glucose solution, dose volume 10 ml/kg). Tail blood glucose levels were measured at times 0, 15, 30, 60, 90, 120 minutes following the i.p. glucose load. […]

[4] = Sub-chronic in vivo study in DIO mice: food intake and body weight; parameters: species or system DIO male C57BL/6J mice; settings: Tables 6-8, compound 47 2 nmol/kg, GIP derivatives 30 nmol/kg
Source text: as §1, §2
All animal protocols were approved by an Institutional Animal Care and Use Committee and Ethical Review Committee of Novo Nordisk. Animals were housed according to Novo Nordisk rodent housing standards, and were given ad libitum access to food and water under controlled lighting (12 h:12 h light/dark cycle; lights off 18:00-06:00), temperature (23±2° C.) and relative humidity (50±20%) conditions. […]
Body weight (BW) and food intake were measured immediately prior to dosing each day. […]

HMWP formation (%/month) [1] [%/month]	Molecule	effect on glucose tolerance (in words) [3]	effect on food intake and body weight (in words) [4]	further results
	CCCC[C@H](NC(=O)[C@H](C)NC(=O)[C@@H](NC(=O)[C@H](CO)NC(=O)[C@H](Cc1ccc(O)cc1)NC(=O)[C@H](CC(=O)O)NC(=O)[C@H](CO)NC(=O)[C@@H](NC(=O)[C@H](Cc1ccccc1)NC(=O)[C@@H](NC(=O)CNC(=O)[C@H](CCC(=O)O)NC(=O)C(C)(C)NC(=O)[C@@H](Cc1ccc(O)cc1)NC(C)=O)[C@@H](C)O)[C@@H](C)CC)[C@@H](C)CC)C(=O)N[C@@H](CC(=O)O)C(=O)N[C@@H](CCCCN)C(=O)N[C@H](C(=O)N[C@@H](CCCNC(=N)N)C(=O)N[C@@H](CCC(N)=O)C(=O)N[C@@H](CCC(N)=O)C(=O)N[C@@H](CC(=O)O)C(=O)N[C@@H](Cc1ccccc1)C(=O)N[C@H](C(=O)N[C@@H](CCCCNC(=O)CC[C@H](NC(=O)CC[C@H](NC(=O)CC[C@H](NC(=O)CCCCCCCCCCCCCCCCC(=O)O)C(=O)O)C(=O)O)C(=O)O)C(=O)N[C@@H](Cc1c[nH]c2ccccc12)C(=O)N[C@@H](CC(C)C)C(=O)N[C@@H](CC(C)C)C(=O)N[C@@H](C)C(=O)N[C@@H](CCC(N)=O)C(=O)N[C@@H](CCCCN)C(=O)NCC(=O)O)C(C)C)[C@@H](C)CC [Compound 5, N{1}-acetyl, N{Epsilon-24}-[(4S)-4-carboxy-4-[[(4S)-4-carboxy-4-[[(4S)-4-carboxy-4-(17-carboxyheptadecanoylamino)butanoyl]amino]butanoyl]amino]butanoyl]-[D-Tyr1,Aib2,Nle14,Arg18,Lys24]-hGIP(1-31)]			half-life (in vivo): 79 h; EC50 (human GIP receptor): 0.0209 nM
0.15	CC[C@H](C)[C@H](NC(=O)[C@H](CO)NC(=O)[C@H](Cc1ccc(O)cc1)NC(=O)[C@H](CC(=O)O)NC(=O)[C@H](CO)NC(=O)[C@@H](NC(=O)[C@H](Cc1ccccc1)NC(=O)[C@@H](NC(=O)CNC(=O)[C@H](CCC(=O)O)NC(=O)[C@H](C)NC(=O)[C@@H](N)Cc1ccc(O)cc1)[C@@H](C)O)[C@@H](C)CC)C(=O)N[C@@H](C)C(=O)N[C@@H](CCSC)C(=O)N[C@@H](CC(=O)O)C(=O)N[C@@H](CCCCN)C(=O)N[C@H](C(=O)N[C@@H](Cc1c[nH]cn1)C(=O)N[C@@H](CCC(N)=O)C(=O)N[C@@H](CCC(N)=O)C(=O)N[C@@H](CC(=O)O)C(=O)N[C@@H](Cc1ccccc1)C(=O)N[C@H](C(=O)N[C@@H](CC(N)=O)C(=O)N[C@@H](Cc1c[nH]c2ccccc12)C(=O)N[C@@H](CC(C)C)C(=O)N[C@@H](CC(C)C)C(=O)N[C@@H](C)C(=O)N[C@@H](CCC(N)=O)C(=O)N[C@@H](CCCCN)C(=O)NCC(=O)O)C(C)C)[C@@H](C)CC [hGIP(1-31)]			DLS-SI precipitates [2]: formation of large aggregates became visible as precipitation
2.0	CC[C@H](C)[C@H](NC(=O)[C@H](CO)NC(=O)[C@H](Cc1ccc(O)cc1)NC(=O)[C@H](CC(=O)O)NC(=O)[C@H](CO)NC(=O)[C@@H](NC(=O)[C@H](Cc1ccccc1)NC(=O)[C@@H](NC(=O)CNC(=O)[C@H](CCC(=O)O)NC(=O)[C@H](C)NC(=O)[C@@H](N)Cc1ccc(O)cc1)[C@@H](C)O)[C@@H](C)CC)C(=O)N[C@@H](C)C(=O)N[C@@H](CCSC)C(=O)N[C@@H](CC(=O)O)C(=O)N[C@@H](CCCCN)C(=O)N[C@H](C(=O)N[C@@H](Cc1c[nH]cn1)C(=O)N[C@@H](CCC(N)=O)C(=O)N[C@@H](CCC(N)=O)C(=O)N[C@@H](CC(=O)O)C(=O)N[C@@H](Cc1ccccc1)C(=O)N[C@H](C(=O)N[C@@H](CC(N)=O)C(=O)N[C@@H](Cc1c[nH]c2ccccc12)C(=O)N[C@@H](CC(C)C)C(=O)N[C@@H](CC(C)C)C(=O)N[C@@H](C)C(=O)N[C@@H](CCC(N)=O)C(=O)N[C@@H](CCCCN)C(=O)NCC(=O)N[C@@H](CCCCN)C(=O)N[C@@H](CCCCN)C(=O)N[C@@H](CC(N)=O)C(=O)N[C@@H](CC(=O)O)C(=O)N[C@@H](Cc1c[nH]c2ccccc12)C(=O)N[C@@H](CCCCN)C(=O)N[C@@H](Cc1c[nH]cn1)C(=O)N[C@@H](CC(N)=O)C(=O)N[C@H](C(=O)N[C@H](C(=O)N[C@@H](CCC(N)=O)C(=O)O)[C@@H](C)O)[C@@H](C)CC)C(C)C)[C@@H](C)CC [hGIP(1-42)]			
	N^6,26-{18-[N-(17-carboxyheptadecanoyl)-D-γ-glutamyl]-10-oxo-3,6,12,15-tetraoxa-9,18-diazaoctadecanoyl}-[8-(2-amino-2-propanoic acid), 34-L-arginine]human glucagon-like peptide 1(7-37) [Compound 47, reference compound]	improvement in glucose tolerance	induced a reduction in food intake that resulted in body weight loss	
	N{1}-acetyl,N{Epsilon-24}-[(4S)-4-carboxy-4-[[(4S)-4-carboxy-4-[[(4S)-4-carboxy-4-[[4-[(19-carboxynonadecanoylamino)methyl]cyclohexanecarbonyl]amino]butanoyl]-amino]butanoyl]amino]butanoyl]-[D-Tyr1,Nle14,Arg18,Aib20,Lys24]-hGIP(1-31) [Compound 25]	improved glucose tolerance	minor effect on food intake	
